Results: patent publication US20100210649A1, “PYRIDAZINONES AND FURAN-CONTAINING COMPOUNDS” (Sloan-Kettering Institute for Cancer Research, priority 2006, published 2010)
Several values for one entry are separate records, joined by “and”; a condition that tells them apart may be missing. Equal entries are not always repeated. Where two headings read alike, the source gives them in different places.

Legend:
H2122 = test: Dose response study (Alamar Blue), H2122; type: cell-based; conditions: Homo sapiens, read-out: IC50 H2122
Experimental: Dose response studies against 34 compounds from the pyridazinone and phenylfuran-carboxamide class were conducted. […] In addition, Tarceva was included in these dose response studies.
(§1) The dose response studies were done with the following standard procedure. First, the cells were counted and dispensed at 250 cells/well into 384-well microplates with compound. The cells were incubated for 48 hours at 37 C to complete treatment, and then alamar blue was added for an additional 48 hours. Finally, alamar blue reduction was measured and the data was loaded into ORIS, our data screening acquisition platform.

H1734 = test: Non Small Cell Lung Cancer proliferation assay (Alamar Blue reduction), H1734; type: cell-based, human
Experimental: (§2) These cells have a doubling time of 1-2 days. All cell types are adherent and grow in colonies. The cells should be kept at a density between 50,000 cells/mL -500,000 cells/mL to provide for optimum growth and adequate nutrition. The cell line should be maintained at 37° C. in a humidified atmosphere with 5% CO2 in a sterile cell culture incubator.
(§3) Non Small Cell Lung Cancer Proliferation Assay.
(§4) High Controls for this assay are made by treating Non Small Cell Lung Cancer cells with 5 ul of 10% DMSO. [Final concentration in this assay is 1% DMSO].
(§5) Important Note: All compounds for testing in this assay should be done at the final concentration of 1% DMSO.
(§6) After addition, the cells are placed in cell culture incubator at 37° C. for 48 hours for complete treatment.
(§7) After drug treatment, cytotoxicity is measured by Alamar Blue reduction.
(§8) The cells are incubated for 48 hours at 37° C. to complete the Alamar Blue reduction.
(§9) The final step in the assay is to measure the amount of Alamar Blue reduction. […] The Alamar Blue fluorescence is measured at an excitation of 530 nm and emission of 590 nm.
(§10) For the NSCLC project, the cell based assay was screened against a small molecule library of approximately 200,000 compounds. The compound library is stored in our automated robotic freezer (Biophile) at −20° C. in 100% DMSO. Compound freeze and thaw cycles are kept to a minimum. […] This assay was performed on a fully automated linear track robotic platform (CRS F3 Robot System, Thermo Electron Corp., Ontario, Canada) utilizing several integrated peripherals for plate handling, liquid dispensing, and readout detection. […] The microplates are then placed at 37° C. for 48 hours to complete treatment of cells with compounds. Next, 5 ul of alamar blue was added using a liquid dispenser (Flexprop Precision Dispenser, Perkin Elmer, Mass., USA) and incubated for 48 hours at 37° C. The alamar blue prompt fluorescence was measured on Victor V (Victor^3 V, Perkin Elmer, Mass., USA) and output data files were loaded into ORIS (Oncology Research Informatics System, MSKCC, NY, USA), a screening data acquisition and analysis platform.
as §1

H358 = test: Non Small Cell Lung Cancer proliferation assay (Alamar Blue reduction), H358; type: cell-based; conditions: Homo sapiens
Experimental: as §2, §3, §4, §5, §6, §7, §8, §9, §10, §1

in vitro = conditions: human
Experimental: NHBE (normal human bronchiolar epithelial cells) are primary cells obtained from donor lungs and commercially available from Cambrex. The HPL1D (human peripheral lung epithelial) cell line has been immortalized with the SV40 large T-antigen. WI-38: human lung fibroblast cell line. HPLID, NHBE and WI-38 cells will serve as controls in the chemical screens. WT: wildtype; WT*: over-expressed wildtype.
Compounds were tested in dose response studies from […] to 5 nM against several non small cell lung cancer lines: H358, H827, H1118, H1650, H1734, H1975, H2030, and H3255, and were also studied in a 72 hour cytotoxicity assay against the NHBE and WI-38 cell lines.

H1975 = test: Non Small Cell Lung Cancer proliferation assay (Alamar Blue reduction), H1975; type: cell-based, human; conditions: for inhibition at 10 µM: NCI-H1975, primary screening; for inhibition at 10 µM / CONFIRMATION [%] 1975: 10 μM compound in 1% DMSO (v/v); for CONFIRMATION [%] 1975: percentage inhibition
Outline: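 Proliferation after 48 h compound exposure (1% DMSO final, 37 °C) was read by Alamar Blue reduction over an additional 48 h, fluorescence at 530 nm excitation/590 nm emission. Dose-response runs seeded 250 cells/well; DMSO-only wells as high control.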

H1118 = test: Non Small Cell Lung Cancer proliferation assay (Alamar Blue reduction), H1118; type: cell-based; conditions: Homo sapiens
Experimental: Non Small Cell Lung Cancer Proliferation Assay. To perform the assay, the Non Small Cell Lung Cancer lines are diluted in media and plated into 384 well microplates at a final density of 250 cells in […]. To ensure consistency and minimal pipetting error, the cells are plated using the Multidrop 384 with the following settings: Rocker Switch set at 384, Volume 45 and Column 24.
Low Controls for this assay are made by treating Non Small Cell Lung Cancer cells with 5 ul of staurosporine at 250 uM in 10% DMSO and 1% SDS. [Final concentration in this assay is 25 uM staurosporine in 1% DMSO and 0.1% SDS.]
as §4
The remaining wells of the 384 microplate may be treated with different compounds depending on the study. Important Note: All compounds for testing in this assay should be done at the final concentration of 1% DMSO.
as §6
After drug treatment, cytotoxicity is measured by Alamar Blue reduction. 5 μL of Alamar Blue is added to the 384 microplates using the Flexdrop.
as §8, §9
For the NSCLC project, the cell based assay was screened against a small molecule library of approximately 200,000 compounds. The compound library is stored in our automated robotic freezer (Biophile) at −20° C. in 100% DMSO. Compound freeze and thaw cycles are kept to a minimum. Compounds for use are diluted into the appropriate concentration and plated into 384 well microplates using our custom built low volume 384-well head tool (TPS 384, Apricot Designs Inc., CA, USA). This assay was performed on a fully automated linear track robotic platform (CRS F3 Robot System, Thermo Electron Corp., Ontario, Canada) utilizing several integrated peripherals for plate handling, liquid dispensing, and readout detection. First, non-small cell lung cancer cell lines are dispensed into 384 well microplates (Corning #3712 Tissue Culture Treated Plate, Corning, N.Y., USA) with 5 μL of test compounds at 100 uM in 10% DMSO for screening studies or […] in 10% DMSO to 50 nM in 10% DMSO for dose response studies. The microplates are then placed at 37° C. for 48 hours to complete treatment of cells with compounds. Next, 5 ul of alamar blue was added using a liquid dispenser (Flexprop Precision Dispenser, Perkin Elmer, Mass., USA) and incubated for 48 hours at 37° C. The alamar blue prompt fluorescence was measured on Victor V (Victor^3 V, Perkin Elmer, Mass., USA) and output data files were loaded into ORIS (Oncology Research Informatics System, MSKCC, NY, USA), a screening data acquisition and analysis platform.
as §1

[1] = Homo sapiens, NCI-H1734, 48 h, H1734, 12 point doubling dilution 10 uM to 5 nM, 48 h treatment, alamar blue additional 48 h, read-out: IC50 H1734
[2] = Homo sapiens, NCI-H1734, dose response 10 M to 5 nM, IC50, read-out: Dose Response (uM) H1734
[3] = NCI-H358, 48 h, H358, 12 point doubling dilution 10 uM to 5 nM, 48 h treatment, alamar blue additional 48 h, read-out: IC50 H358
[4] = Homo sapiens, NCI-H1975, 48 h, H1975, 12 point doubling dilution 10 uM to 5 nM, 48 h treatment, alamar blue additional 48 h, read-out: IC50 H1975
[5] = Homo sapiens, NCI-H1975, dose response 10 M to 5 nM, IC50, read-out: Dose Response (uM) H1975
[6] = read-out: Dose Response (uM) H1118
[7] = NCI-H2122, H2122, 12 point doubling dilution 10 uM to 5 nM, 48 h treatment, alamar blue additional 48 h
[8] = Homo sapiens, NCI-H1734, H1734, 12 point doubling dilution 10 uM to 5 nM, 48 h treatment, alamar blue additional 48 h, read-out: IC50 H1734
[9] = Homo sapiens, NCI-H1734, read-out: Dose Response (uM) H1734
[10] = NCI-H358, H358, 12 point doubling dilution 10 uM to 5 nM, 48 h treatment, alamar blue additional 48 h, read-out: IC50 H358
[11] = NCI-H358, read-out: Dose Response (uM) H358
[12] = H1118, 12 point doubling dilution 10 uM to 5 nM, 48 h treatment, alamar blue additional 48 h, read-out: IC50 H1118
[13] = Homo sapiens, NCI-H1975, phenylfuran-2-carboxamide SAR summary, read-out: IC50(uM) 1975
[14] = Homo sapiens, H1975, read-out: PRIMARY HTS [%] H1975 (percentage inhibition)

Structure (SMILES) | IC50 (H2122; NCI-H2122, 48 h) [nM] | IC50 (H1734; [1]) [µM] | IC50 (H358; [3]) [µM] | IC50 at 72 h (in vitro; CytoTox (uM) NHBE) [µM] | IC50 at 72 h (in vitro; CytoTox (uM) WI-38) [µM] | IC50 (H1975; [4]) [µM] | IC50 (H1975; [5]) [µM] | IC50 (H1118; 48 h, read-out: IC50 H1118) [µM] | IC50 (H2122; [7]) [nM] | IC50 (H1734; [8]) [µM] | IC50 (H358; [10]) [µM] | IC50 (H1118; [12]) [µM] | IC50 (H1975; [13]) [µM] | inhibition at 10 µM (H1975; [14]) [%] | CONFIRMATION [%] 1975 (H1975) | also measured
O=c1c(Cl)c(Cl)cnn1-c1ccccc1 [compound 257014] | 1160 | 2.28 | 0.68 | 3.29 | 6.93 | 0.36 | 0.29 | 0.45 | – | – | – | – | – | – | – | IC50 (H1734; [2]): 4.11 µM; IC50 (H358; NCI-H358, dose response 10 M to 5 nM, IC50, read-out: Dose Response (uM) H358): 0.31 µM; IC50 (H1118; [6]): 0.27 µM
Cc1cc(-n2ncc(Cl)c(Cl)c2=O)ccc1Cl [compound 267065] | – | – | – | > 10 | > 10 | > 10 | 1.89 | – | > 10000 | > 10 | > 10 | > 10 | – | – | – | IC50 (H1734; [9]): > 10 µM; IC50 (H358; [11]): 1.24 µM
CCCCc1cccc(-n2ncc(Cl)c(Cl)c2=O)c1 [compound 267063] | – | – | – | 5.34 | > 10 | 6.57 | 1.93 | – | > 10000 | > 10 | 6.66 | 6.41 | – | – | – | IC50 (H1734; [9]): 3.25 µM; IC50 (H358; [11]): 0.76 µM
Cc1ccc(NC(=O)c2ccc([N+](=O)[O-])o2)cc1 [compound 98697] | 5200 | 4.42 | 1.2 | – | – | 4.57 | – | 0.56 | – | – | – | – | 1.09 | 70 | 70% | –
O=C(Nc1ccc(Cl)cc1)c1ccc([N+](=O)[O-])o1 [compound 98698, 5-nitro-furan-2-carboxylic acid (4-chloro-phenyl)-amide] | 3090 | 3.47 | 0.81 | – | – | 2.63 | – | 0.53 | – | – | – | – | 0.63 | 74 | 57% | –
Cc1cccc(NC(=O)c2ccc([N+](=O)[O-])o2)c1 [compound 71762] | – | – | – | – | – | 4.23 | – | – | 4830 | 4.88 | 1.27 | 0.38 | 1.24 | 74 | 59% and 76% | IC50 (H1975; phenylfuran-2-carboxamide SAR summary, read-out: IC50(uM) 1975): 1.23 µM
O=C(Nc1ccc(F)c(Cl)c1)c1ccc([N+](=O)[O-])o1 [compound 87200] | – | – | – | – | – | > 10 | – | – | > 10000 | > 10 | 7.17 | 4.33 | 0.44 | 67 | 95% | –
Cc1cccc(-n2ncc(Cl)c(Cl)c2=O)c1 [compound 104122, 4,5-dichloro-2-m-tolyl-2H-pyridazin-3-one] | 1150 | 2.14 | 0.41 | – | – | 0.29 | – | 0.34 | – | – | – | – | – | – | – | IC50 (H1734; [2]): 2.17 µM; IC50 (H1734; dose response 10 M to 5 nM, IC50, read-out: Dose Response (uM) H1734): 1.17 µM and 2.21 µM and 1.73 µM; inhibition at 10 µM (H1975; Homo sapiens, read-out: percentage inhibition H1975): 104%; IC50 (H1975; dose response 10 M to 5 nM, IC50, read-out: Dose Response (uM) H1975): 0.14 µM; IC50 (H1118; [6]): 0.11 µM
